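Protocol summary: plate cells (96-well), add compound at 5 concentrations, incubate 48 h, interpolate endpoints linearly. Here, GI50 denotes the concentration required for 50% inhibition of growth. TGI marks complete inhibition of growth.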
Legend:
Assay in all cases: NCI-60 cell line screen, 48 h
NCI/ADR-RES ovarian = system: NCI/ADR-RES ovarian
MDA-MB-231 breast = system: MDA-MB-231 breast
PC-3 prostate = system: PC-3 prostate
RXF 393 renal = system: RXF 393 renal
SN12C renal = system: SN12C renal
TK-10 renal = system: TK-10 renal
SK-MEL-5 melanoma = system: SK-MEL-5 melanoma
CCRF-CEM leukemia = system: CCRF-CEM leukemia
U251 CNS = system: U251 CNS
UO-31 renal = system: UO-31 renal
NCI-H23 lung = system: NCI-H23 lung
A549 NSCLC = system: A549 NSCLC
ACHN renal = system: ACHN renal
A498 renal = system: A498 renal
SF-268 CNS = system: SF-268 CNS
T-47D breast = system: T-47D breast
EKVX NSCLC = system: EKVX NSCLC
DU-145 prostate = system: DU-145 prostate
IGROV1 ovarian = system: IGROV1 ovarian
MCF7 breast = system: MCF7 breast
NCI-H226 lung = system: NCI-H226 lung
SF-539 CNS = system: SF-539 CNS
OVCAR-5 ovarian = system: OVCAR-5 ovarian
SNB-75 CNS = system: SNB-75 CNS
RPMI-8226 leukemia = system: RPMI-8226 leukemia
786-0 renal = system: 786-0 renal
MOLT-4 leukemia = system: MOLT-4 leukemia
HOP-92 NSCLC = system: HOP-92 NSCLC
HOP-62 NSCLC = system: HOP-62 NSCLC

**Q.** Which GI50 (NCI/ADR-RES ovarian) does the source give for C[C@]12CC[C@H]3[C@@H](CC=C4C[C@@H](O)CC[C@@]43C)[C@@H]1CC[C@@H]2[C@](C)(O)CCc1cccnc1 here?
**A.** 3.43 µM

**Q.** What about the TGI (NCI/ADR-RES ovarian) of the same compound?
**A.** > 100 µM

**Q.** And the GI50 (MDA-MB-231 breast)?
**A.** 6.39 µM

**Q.** What about the TGI (MDA-MB-231 breast) of the same compound?
**A.** > 100 µM

**Q.** And the GI50 (PC-3 prostate)?
**A.** 3.55 µM

**Q.** What about the TGI (PC-3 prostate) of the same compound?
**A.** > 100 µM

**Q.** And the GI50 (RXF 393 renal)?
**A.** 1.94 µM

**Q.** And the TGI (RXF 393 renal)?
**A.** 7.78 µM

**Q.** And the GI50 (SN12C renal)?
**A.** 47.1 µM

**Q.** What about the TGI (SN12C renal) of the same compound?
**A.** > 100 µM

**Q.** And the GI50 (TK-10 renal)?
**A.** 7.58 µM

**Q.** What about the TGI (TK-10 renal) of the same compound?
**A.** > 100 µM

**Q.** What about the GI50 (SK-MEL-5 melanoma) of the same compound?
**A.** 1.01 µM

**Q.** And the TGI (SK-MEL-5 melanoma)?
**A.** 2.6 µM

**Q.** What about the GI50 (CCRF-CEM leukemia) of the same compound?
**A.** 4.1 µM

**Q.** What about the TGI (CCRF-CEM leukemia) of the same compound?
**A.** > 100 µM

**Q.** What about the GI50 (U251 CNS) of the same compound?
**A.** 6.5 µM

**Q.** What about the TGI (U251 CNS) of the same compound?
**A.** > 100 µM

**Q.** What about the GI50 (UO-31 renal) of the same compound?
**A.** 1.97 µM

**Q.** What about the TGI (UO-31 renal) of the same compound?
**A.** > 100 µM

**Q.** And the GI50 (NCI-H23 lung)?
**A.** 3.05 µM

**Q.** And the TGI (NCI-H23 lung)?
**A.** > 100 µM

**Q.** What about the GI50 (A549 NSCLC) of the same compound?
**A.** 4.44 µM

**Q.** And the TGI (A549 NSCLC)?
**A.** > 100 µM

**Q.** And the GI50 (ACHN renal)?
**A.** 4.53 µM

**Q.** What about the TGI (ACHN renal) of the same compound?
**A.** > 100 µM

**Q.** And the GI50 (A498 renal)?
**A.** 2.74 µM

**Q.** What about the TGI (A498 renal) of the same compound?
**A.** 62.1 µM

**Q.** And the GI50 (SF-268 CNS)?
**A.** 5.3 µM

**Q.** What about the TGI (SF-268 CNS) of the same compound?
**A.** > 100 µM

**Q.** What about the GI50 (T-47D breast) of the same compound?
**A.** 2.09 µM

**Q.** What about the TGI (T-47D breast) of the same compound?
**A.** > 100 µM

**Q.** What about the GI50 (EKVX NSCLC) of the same compound?
**A.** 1.59 µM

**Q.** And the TGI (EKVX NSCLC)?
**A.** > 100 µM

**Q.** What about the GI50 (DU-145 prostate) of the same compound?
**A.** 3.48 µM

**Q.** And the TGI (DU-145 prostate)?
**A.** > 100 µM

**Q.** And the GI50 (IGROV1 ovarian)?
**A.** 6.37 µM

**Q.** And the TGI (IGROV1 ovarian)?
**A.** > 100 µM

**Q.** And the GI50 (MCF7 breast)?
**A.** 2.28 µM

**Q.** What about the TGI (MCF7 breast) of the same compound?
**A.** > 100 µM

**Q.** And the GI50 (NCI-H226 lung)?
**A.** 3.7 µM

**Q.** What about the TGI (NCI-H226 lung) of the same compound?
**A.** 55 µM

**Q.** What about the GI50 (SF-539 CNS) of the same compound?
**A.** 6.11 µM

**Q.** And the TGI (SF-539 CNS)?
**A.** > 100 µM

**Q.** What about the GI50 (OVCAR-5 ovarian) of the same compound?
**A.** > 100 µM

**Q.** And the TGI (OVCAR-5 ovarian)?
**A.** > 100 µM

**Q.** What about the GI50 (SNB-75 CNS) of the same compound?
**A.** 2.92 µM

**Q.** What about the TGI (SNB-75 CNS) of the same compound?
**A.** > 100 µM

**Q.** What about the GI50 (RPMI-8226 leukemia) of the same compound?
**A.** 1.88 µM

**Q.** And the TGI (RPMI-8226 leukemia)?
**A.** 49.9 µM

**Q.** What about the GI50 (786-0 renal) of the same compound?
**A.** 5.76 µM

**Q.** And the TGI (786-0 renal)?
**A.** > 100 µM

**Q.** What about the GI50 (MOLT-4 leukemia) of the same compound?
**A.** 2.75 µM

**Q.** What about the TGI (MOLT-4 leukemia) of the same compound?
**A.** 24 µM

**Q.** And the GI50 (HOP-92 NSCLC)?
**A.** 2.11 µM

**Q.** What about the TGI (HOP-92 NSCLC) of the same compound?
**A.** > 100 µM

**Q.** What about the GI50 (HOP-62 NSCLC) of the same compound?
**A.** 9.27 µM

Reference: PubChem BioAssay (NCI)
